Article PMC9856672, “SGC-CAMKK2-1: A Chemical Probe for CAMKK2” (Cells, 2023)

Tests used:
GRK1 = target: T1, GRK1 (Homo sapiens, UniProt Q15835); experiment: KINOMEscan 1 μM, GRK1; format: binding; settings: 1000 nM; Entrez GRK1; read-out: Percent Control
T1 construct: purchased Eurofins DiscoverX KINOMEscan
Description: (§1) Supplement cells-12-00287-s001.zip/File S2. KinomeScan data for the CAMKK2 probe and negative control.xlsx, sheet "SGC-CAMKK2-1" | column: Percent Control

NLK = target: T2, NLK (Homo sapiens, UniProt Q9UBE8); experiment: KINOMEscan 1 μM, NLK; format: binding; settings: 1000 nM; Entrez NLK; read-out: Percent Control
T2 construct: purchased Eurofins DiscoverX KINOMEscan
Description: as §1

TIE2 = target: T3, TIE2 (Homo sapiens, UniProt Q02763); experiment: KINOMEscan 1 μM, TIE2; format: binding; settings: 1000 nM; Entrez TEK; read-out: Percent Control
T3 construct: purchased Eurofins DiscoverX KINOMEscan
Description: as §1

OSR1 = target: T4, OSR1 (Homo sapiens, UniProt O95747); experiment: KINOMEscan 1 μM, OSR1; format: binding; settings: 1000 nM; Entrez OXSR1; read-out: Percent Control
T4 construct: purchased Eurofins DiscoverX KINOMEscan
Description: as §1

CLK1 = target: T5, CLK1 (Homo sapiens, UniProt P49759); experiment: KINOMEscan 1 μM, CLK1; format: binding; settings: 1000 nM; Entrez CLK1; read-out: Percent Control
T5 construct: purchased Eurofins DiscoverX KINOMEscan
Description: as §1

[1] = target: T6, RSK1(Kin.Dom.1-N-terminal) (Homo sapiens, UniProt Q15418); experiment: DiscoverX KINOMEscan binding assay at 1 μM, RSK1(Kin.Dom.1-N-terminal); settings: RSK1(Kin.Dom.1-N-terminal) (RPS6KA1); Compound Concentration 1000 nM; read-out: Percent Control
T6 construct: RSK1(Kin.Dom.1-N-terminal); purchased Eurofins DiscoverX KINOMEscan
Description: as §1

PCTK3 = target: T7, PCTK3 (Homo sapiens, UniProt Q07002); experiment: KINOMEscan 1 μM, PCTK3; format: binding; settings: 1000 nM; Entrez CDK18; read-out: Percent Control
T7 construct: purchased Eurofins DiscoverX KINOMEscan
T7 sequence (Q07002 whole entry): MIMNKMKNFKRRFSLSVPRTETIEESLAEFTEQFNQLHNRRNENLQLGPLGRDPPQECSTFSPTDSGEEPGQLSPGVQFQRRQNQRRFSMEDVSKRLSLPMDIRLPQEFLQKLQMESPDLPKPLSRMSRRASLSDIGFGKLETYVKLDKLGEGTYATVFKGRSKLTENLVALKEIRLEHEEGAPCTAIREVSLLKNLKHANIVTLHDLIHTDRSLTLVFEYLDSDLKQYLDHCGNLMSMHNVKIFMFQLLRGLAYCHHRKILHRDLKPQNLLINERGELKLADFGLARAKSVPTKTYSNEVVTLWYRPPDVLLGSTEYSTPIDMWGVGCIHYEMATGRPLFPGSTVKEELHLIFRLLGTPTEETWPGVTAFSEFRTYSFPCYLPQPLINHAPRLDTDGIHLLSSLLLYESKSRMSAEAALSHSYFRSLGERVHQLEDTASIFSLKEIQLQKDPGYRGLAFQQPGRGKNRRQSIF
Description: as §1

PLK1 = target: T8, PLK1 (Homo sapiens, UniProt P53350); experiment: DiscoverX KINOMEscan binding assay at 1 μM, PLK1; settings: Compound Concentration 1000 nM, read-out: Percent Control
T8 construct: purchased Eurofins DiscoverX KINOMEscan
Description: as §1

DRAK2 = target: T9, DRAK2 (Homo sapiens, UniProt O94768); experiment: KINOMEscan 1 μM, DRAK2; format: binding; settings: 1000 nM; Entrez STK17B; read-out: Percent Control
T9 construct: purchased Eurofins DiscoverX KINOMEscan
Description: as §1

MARK1 = target: T10, MARK1 (Homo sapiens, UniProt Q9P0L2); experiment: KINOMEscan 1 μM, MARK1; format: binding; settings: 1000 nM; Entrez MARK1; read-out: Percent Control
T10 construct: purchased Eurofins DiscoverX KINOMEscan
Description: as §1

MINK = target: T11, MINK (Homo sapiens, UniProt Q8N4C8); experiment: KINOMEscan 1 μM, MINK; format: binding; settings: 1000 nM; Entrez MINK1; read-out: Percent Control
T11 construct: purchased Eurofins DiscoverX KINOMEscan
Description: as §1

DMPK = target: T12, DMPK (Homo sapiens, UniProt Q09013); experiment: KINOMEscan 1 μM, DMPK; format: binding; settings: 1000 nM; Entrez DMPK; read-out: Percent Control
T12 construct: purchased Eurofins DiscoverX KINOMEscan
Description: as §1

SRPK1 = target: T13, SRPK1 (Homo sapiens, UniProt Q96SB4); experiment: KINOMEscan 1 μM, SRPK1; format: binding; settings: 1000 nM; Entrez SRPK1; read-out: Percent Control
T13 construct: purchased Eurofins DiscoverX KINOMEscan
Description: as §1

PRKCQ = target: T14, PRKCQ (Homo sapiens, UniProt Q04759); experiment: KINOMEscan binding assay at 1 μM, PRKCQ; settings: Compound Concentration 1000 nM; read-out: Percent Control
T14 construct: purchased Eurofins DiscoverX KINOMEscan
Description: (§2) Supplement cells-12-00287-s001.zip/File S2. KinomeScan data for the CAMKK2 probe and negative control.xlsx, sheet "SGC-CAMKK2-1N" | column: Percent Control

[2] = target: T15, RPS6KA5(Kin.Dom.2-C-terminal) (Homo sapiens, UniProt O75582); experiment: KINOMEscan at 1 μM, RPS6KA5(Kin.Dom.2-C-terminal); format: binding; settings: 1000 nM, read-out: Percent Control
T15 construct: RPS6KA5(Kin.Dom.2-C-terminal); purchased Eurofins DiscoverX KINOMEscan
Description: as §2

[3] = target: T16, ABL1(T315I)-phosphorylated (Homo sapiens, UniProt P00519, T315I); experiment: KINOMEscan at 1 μM, ABL1(T315I)-phosphorylated; format: binding; settings: 1000 nM, read-out: Percent Control
T16 construct: purchased Eurofins DiscoverX KINOMEscan
Description: as §2

EPHB4 = target: T17, EPHB4 (Homo sapiens, UniProt P54760); experiment: KINOMEscan at 1 μM, EPHB4; format: binding; settings: 1000 nM, read-out: Percent Control
T17 construct: purchased Eurofins DiscoverX KINOMEscan
T17 sequence (P54760 16-987): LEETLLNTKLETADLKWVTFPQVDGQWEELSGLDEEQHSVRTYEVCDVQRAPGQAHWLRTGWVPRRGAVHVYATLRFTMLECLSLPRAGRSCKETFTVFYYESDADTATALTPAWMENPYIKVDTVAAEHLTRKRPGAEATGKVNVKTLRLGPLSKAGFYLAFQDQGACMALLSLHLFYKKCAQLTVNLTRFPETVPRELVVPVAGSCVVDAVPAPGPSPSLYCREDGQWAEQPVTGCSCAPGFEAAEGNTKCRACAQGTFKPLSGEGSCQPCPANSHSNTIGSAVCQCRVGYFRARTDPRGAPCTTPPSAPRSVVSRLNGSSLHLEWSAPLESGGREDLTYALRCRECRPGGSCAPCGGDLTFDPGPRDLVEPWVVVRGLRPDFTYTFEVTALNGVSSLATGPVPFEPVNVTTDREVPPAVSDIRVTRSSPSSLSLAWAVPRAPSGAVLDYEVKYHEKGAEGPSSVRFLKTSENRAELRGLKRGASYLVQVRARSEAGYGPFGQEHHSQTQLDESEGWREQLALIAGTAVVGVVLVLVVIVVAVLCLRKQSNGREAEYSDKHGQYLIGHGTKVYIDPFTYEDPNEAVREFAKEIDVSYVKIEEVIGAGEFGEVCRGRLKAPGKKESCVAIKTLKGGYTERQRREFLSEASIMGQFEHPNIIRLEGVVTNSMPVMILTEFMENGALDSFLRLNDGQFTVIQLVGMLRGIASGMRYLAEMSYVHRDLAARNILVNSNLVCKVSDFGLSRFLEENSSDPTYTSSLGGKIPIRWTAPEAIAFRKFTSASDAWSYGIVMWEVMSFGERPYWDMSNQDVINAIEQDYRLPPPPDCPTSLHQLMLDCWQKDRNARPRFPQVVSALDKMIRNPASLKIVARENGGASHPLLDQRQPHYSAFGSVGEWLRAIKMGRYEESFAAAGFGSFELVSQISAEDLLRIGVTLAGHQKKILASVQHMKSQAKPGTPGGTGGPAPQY
Description: as §2

VRK2 = target: T18, VRK2 (Homo sapiens, UniProt Q86Y07); experiment: KINOMEscan at 1 μM, VRK2; format: binding; settings: 1000 nM, read-out: Percent Control
T18 construct: purchased Eurofins DiscoverX KINOMEscan
T18 sequence (Q86Y07 whole entry): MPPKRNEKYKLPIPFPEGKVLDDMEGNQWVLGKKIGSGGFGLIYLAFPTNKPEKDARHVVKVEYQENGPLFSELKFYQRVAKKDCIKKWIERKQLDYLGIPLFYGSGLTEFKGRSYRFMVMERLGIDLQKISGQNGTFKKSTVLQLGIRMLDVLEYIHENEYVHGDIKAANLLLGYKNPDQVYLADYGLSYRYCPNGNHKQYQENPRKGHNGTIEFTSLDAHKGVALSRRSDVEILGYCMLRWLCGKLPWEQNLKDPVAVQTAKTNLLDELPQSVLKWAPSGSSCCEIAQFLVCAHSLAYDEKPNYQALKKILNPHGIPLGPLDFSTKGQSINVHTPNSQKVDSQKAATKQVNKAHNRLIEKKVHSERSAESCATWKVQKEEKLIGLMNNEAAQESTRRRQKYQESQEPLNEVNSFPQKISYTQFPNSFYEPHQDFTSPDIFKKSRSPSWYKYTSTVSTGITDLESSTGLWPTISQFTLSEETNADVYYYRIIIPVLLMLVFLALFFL
Description: as §2

MKNK1 = target: T19, MKNK1 (Homo sapiens, UniProt Q9BUB5); experiment: KINOMEscan at 1 μM, MKNK1; format: binding; settings: 1000 nM, read-out: Percent Control
T19 construct: purchased Eurofins DiscoverX KINOMEscan
Description: as §2

NEK1 = target: T20, NEK1 (Homo sapiens, UniProt Q96PY6); experiment: KINOMEscan at 1 μM, NEK1; format: binding; settings: 1000 nM, read-out: Percent Control
T20 construct: purchased Eurofins DiscoverX KINOMEscan
Description: as §2

EPHA6 = target: T21, EPHA6 (Homo sapiens, UniProt Q9UF33); experiment: KINOMEscan binding assay at 1 μM, EPHA6; settings: Compound Concentration 1000 nM; read-out: Percent Control
T21 construct: purchased Eurofins DiscoverX KINOMEscan
T21 sequence (Q9UF33 23-1036): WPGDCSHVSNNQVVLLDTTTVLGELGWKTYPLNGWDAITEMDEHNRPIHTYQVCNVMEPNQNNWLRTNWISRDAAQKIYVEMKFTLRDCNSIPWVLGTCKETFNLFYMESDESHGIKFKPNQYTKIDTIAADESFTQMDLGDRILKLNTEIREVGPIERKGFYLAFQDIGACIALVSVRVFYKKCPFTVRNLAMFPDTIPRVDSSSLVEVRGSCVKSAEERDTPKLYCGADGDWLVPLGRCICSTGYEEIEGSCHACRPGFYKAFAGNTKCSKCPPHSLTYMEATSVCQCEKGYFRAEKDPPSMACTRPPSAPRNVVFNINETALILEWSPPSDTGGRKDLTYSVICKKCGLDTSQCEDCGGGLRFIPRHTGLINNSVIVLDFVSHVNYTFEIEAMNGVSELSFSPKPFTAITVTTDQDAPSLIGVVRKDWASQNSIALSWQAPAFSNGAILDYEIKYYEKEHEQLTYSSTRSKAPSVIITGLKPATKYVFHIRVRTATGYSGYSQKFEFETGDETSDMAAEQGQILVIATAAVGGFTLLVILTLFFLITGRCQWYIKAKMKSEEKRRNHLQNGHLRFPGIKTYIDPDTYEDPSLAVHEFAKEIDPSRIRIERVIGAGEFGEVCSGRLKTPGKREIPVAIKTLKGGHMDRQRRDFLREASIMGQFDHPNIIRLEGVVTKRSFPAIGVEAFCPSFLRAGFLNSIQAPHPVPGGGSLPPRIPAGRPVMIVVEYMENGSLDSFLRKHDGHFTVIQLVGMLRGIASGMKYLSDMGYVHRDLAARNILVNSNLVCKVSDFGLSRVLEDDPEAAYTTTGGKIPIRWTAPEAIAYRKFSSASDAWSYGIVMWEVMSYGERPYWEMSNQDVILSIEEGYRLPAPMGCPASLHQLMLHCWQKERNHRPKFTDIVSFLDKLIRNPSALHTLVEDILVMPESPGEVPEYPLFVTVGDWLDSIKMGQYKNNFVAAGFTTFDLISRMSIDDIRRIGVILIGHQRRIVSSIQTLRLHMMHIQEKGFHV
Description: as §2

[4] = target: T22, ABL1(T315I)-nonphosphorylated (Homo sapiens, UniProt P00519, T315I); experiment: KINOMEscan at 1 μM, ABL1(T315I)-nonphosphorylated; format: binding; settings: 1000 nM, read-out: Percent Control
T22 construct: purchased Eurofins DiscoverX KINOMEscan
Description: as §2

TYRO3 = target: T23, TYRO3 (Homo sapiens, UniProt Q06418); experiment: KINOMEscan binding assay at 1 μM, TYRO3; settings: Compound Concentration 1000 nM; read-out: Percent Control
T23 construct: purchased Eurofins DiscoverX KINOMEscan
T23 sequence (Q06418 41-890): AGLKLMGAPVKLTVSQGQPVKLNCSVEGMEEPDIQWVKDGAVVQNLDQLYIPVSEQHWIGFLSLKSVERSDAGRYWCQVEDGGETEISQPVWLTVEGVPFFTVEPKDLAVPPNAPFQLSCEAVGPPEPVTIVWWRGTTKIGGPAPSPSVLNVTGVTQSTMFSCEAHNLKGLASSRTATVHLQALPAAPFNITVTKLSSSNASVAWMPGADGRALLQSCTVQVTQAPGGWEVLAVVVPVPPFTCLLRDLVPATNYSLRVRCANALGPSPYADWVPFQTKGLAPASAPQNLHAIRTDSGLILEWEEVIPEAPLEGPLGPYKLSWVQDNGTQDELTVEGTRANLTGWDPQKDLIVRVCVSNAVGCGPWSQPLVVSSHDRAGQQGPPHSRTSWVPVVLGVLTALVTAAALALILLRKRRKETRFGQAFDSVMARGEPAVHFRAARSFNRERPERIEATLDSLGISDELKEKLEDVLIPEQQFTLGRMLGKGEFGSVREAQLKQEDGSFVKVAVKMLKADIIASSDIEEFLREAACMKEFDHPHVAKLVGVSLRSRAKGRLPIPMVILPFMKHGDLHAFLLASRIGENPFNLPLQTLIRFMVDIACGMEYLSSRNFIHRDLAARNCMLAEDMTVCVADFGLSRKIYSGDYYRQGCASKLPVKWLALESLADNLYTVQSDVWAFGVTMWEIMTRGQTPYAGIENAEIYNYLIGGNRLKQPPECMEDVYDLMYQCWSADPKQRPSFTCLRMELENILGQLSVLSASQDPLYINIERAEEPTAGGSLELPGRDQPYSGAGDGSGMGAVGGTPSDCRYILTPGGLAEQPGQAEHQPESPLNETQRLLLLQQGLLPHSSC
Description: as §2

[5] = target: T24, EGFR(L747-E749del, A750P) (Homo sapiens, UniProt P00533, A750P/DEL747-749); experiment: KINOMEscan binding assay at 1 μM, EGFR(L747-E749del, A750P); settings: Compound Concentration 1000 nM; read-out: Percent Control
T24 construct: purchased Eurofins DiscoverX KINOMEscan
Description: as §2

CSK = target: T25, CSK (Homo sapiens, UniProt P41240); experiment: KINOMEscan at 1 μM, CSK; format: binding; settings: 1000 nM, read-out: Percent Control
T25 construct: purchased Eurofins DiscoverX KINOMEscan
Description: as §2

ERBB3 = target: T26, ERBB3 (Homo sapiens, UniProt P21860); experiment: KINOMEscan at 1 μM, ERBB3; format: binding; settings: 1000 nM, read-out: Percent Control
T26 construct: purchased Eurofins DiscoverX KINOMEscan
Description: as §2

MUSK = target: T27, MUSK (Homo sapiens, UniProt O15146); experiment: KINOMEscan binding assay at 1 μM, MUSK; settings: Compound Concentration 1000 nM; read-out: Percent Control
T27 construct: purchased Eurofins DiscoverX KINOMEscan
Description: as §2

[6] = target: T28, EGFR(L747-S752del, P753S) (Homo sapiens, UniProt P00533, DEL747-752/P753S); experiment: KINOMEscan binding assay at 1 μM, EGFR(L747-S752del, P753S); settings: Compound Concentration 1000 nM; read-out: Percent Control
T28 construct: purchased Eurofins DiscoverX KINOMEscan
Description: as §2

HPK1 = target: T29, HPK1 (Homo sapiens, UniProt Q92918); experiment: KINOMEscan binding assay at 1 μM, HPK1; settings: Compound Concentration 1000 nM; read-out: Percent Control
T29 construct: purchased Eurofins DiscoverX KINOMEscan
Description: as §2

ALK(L1196M) = target: T30, ALK(L1196M) (Homo sapiens, UniProt Q9UM73, L1196M); experiment: KINOMEscan at 1 μM, ALK(L1196M); format: binding; settings: 1000 nM, read-out: Percent Control
T30 construct: purchased Eurofins DiscoverX KINOMEscan
Description: as §2

PKNB(M.tuberculosis) = target: T31, PKNB(M.tuberculosis) (Mycobacterium tuberculosis, UniProt P9WI81); experiment: KINOMEscan at 1 μM, PKNB(M.tuberculosis); format: binding; settings: 1000 nM, read-out: Percent Control
T31 construct: purchased Eurofins DiscoverX KINOMEscan
T31 sequence (P9WI81 whole entry): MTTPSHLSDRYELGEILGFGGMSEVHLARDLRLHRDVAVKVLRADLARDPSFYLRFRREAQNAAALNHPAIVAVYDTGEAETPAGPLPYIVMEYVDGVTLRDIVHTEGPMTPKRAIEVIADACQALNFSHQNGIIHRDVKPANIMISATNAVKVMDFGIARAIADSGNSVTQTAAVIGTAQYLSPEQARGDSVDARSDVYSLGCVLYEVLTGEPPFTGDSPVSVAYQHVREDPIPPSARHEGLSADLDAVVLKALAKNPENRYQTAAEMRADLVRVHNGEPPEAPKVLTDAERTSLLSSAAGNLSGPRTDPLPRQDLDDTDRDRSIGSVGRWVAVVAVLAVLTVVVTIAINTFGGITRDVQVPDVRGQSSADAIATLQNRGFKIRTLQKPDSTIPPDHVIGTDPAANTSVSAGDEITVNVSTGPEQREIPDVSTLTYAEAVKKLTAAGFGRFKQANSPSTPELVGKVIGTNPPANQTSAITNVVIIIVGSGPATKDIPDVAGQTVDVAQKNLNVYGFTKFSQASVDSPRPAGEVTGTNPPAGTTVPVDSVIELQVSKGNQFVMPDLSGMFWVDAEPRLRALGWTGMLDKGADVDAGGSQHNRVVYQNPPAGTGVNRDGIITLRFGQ
Description: as §2

NEK9 = target: T32, NEK9 (Homo sapiens, UniProt Q8TD19); experiment: KINOMEscan binding assay at 1 μM, NEK9; settings: Compound Concentration 1000 nM; read-out: Percent Control
T32 construct: purchased Eurofins DiscoverX KINOMEscan
Description: as §2

ACVRL1 = target: T33, ACVRL1 (Homo sapiens, UniProt P37023); experiment: KINOMEscan at 1 μM, ACVRL1; format: binding; settings: 1000 nM, read-out: Percent Control
T33 construct: purchased Eurofins DiscoverX KINOMEscan
Description: as §2

T1 sequence (Q15835 whole entry): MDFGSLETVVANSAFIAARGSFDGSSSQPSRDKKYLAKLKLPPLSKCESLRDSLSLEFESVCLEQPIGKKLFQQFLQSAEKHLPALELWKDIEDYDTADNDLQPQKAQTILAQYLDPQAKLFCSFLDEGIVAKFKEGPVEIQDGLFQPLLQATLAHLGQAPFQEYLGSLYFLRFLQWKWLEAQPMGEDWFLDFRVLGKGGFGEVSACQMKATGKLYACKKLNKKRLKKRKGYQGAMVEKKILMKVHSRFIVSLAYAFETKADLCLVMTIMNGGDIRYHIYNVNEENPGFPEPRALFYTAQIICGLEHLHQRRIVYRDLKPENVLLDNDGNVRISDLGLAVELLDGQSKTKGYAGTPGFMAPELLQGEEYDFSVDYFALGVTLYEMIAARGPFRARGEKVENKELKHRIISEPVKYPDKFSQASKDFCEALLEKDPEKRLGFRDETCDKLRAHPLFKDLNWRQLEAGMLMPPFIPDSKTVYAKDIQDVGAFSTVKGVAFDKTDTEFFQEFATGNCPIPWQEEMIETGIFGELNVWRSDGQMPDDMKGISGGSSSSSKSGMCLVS

Cc1cccc(-c2cnc3occ(-c4ccc(C(=O)O)c(C5CCCC5)c4)c3c2)c1 [SGC-CAMKK2-1 (YL-36)]
remaining binding at 1 µM (GRK1): 100% | remaining binding at 1 µM (NLK): 81% | remaining binding at 1 µM (TIE2): 97% | remaining binding at 1 µM (OSR1): 84% | remaining binding at 1 µM (CLK1): 100% | remaining binding at 1 µM [1]: 100% | remaining binding at 1 µM (PCTK3): 99% | remaining binding at 1 µM (PLK1): 100% | remaining binding at 1 µM (DRAK2): 100% | remaining binding at 1 µM (MARK1): 100% | remaining binding at 1 µM (MINK): 100% | remaining binding at 1 µM (DMPK): 92% | remaining binding at 1 µM (SRPK1): 80%

O=C(O)c1ccc(-c2coc3ncc(-c4ccccc4)cc23)cc1Cl [SGC-CAMKK2-1N (UNC-YL-83)]
remaining binding at 1 µM (PRKCQ): 100% | remaining binding at 1 µM [2]: 82% | remaining binding at 1 µM [3]: 84% | remaining binding at 1 µM (EPHB4): 56% | remaining binding at 1 µM (VRK2): 58% | remaining binding at 1 µM (MKNK1): 49% | remaining binding at 1 µM (NEK1): 71% | remaining binding at 1 µM (EPHA6): 100% | remaining binding at 1 µM [4]: 45% | remaining binding at 1 µM (TYRO3): 100% | remaining binding at 1 µM [5]: 100% | remaining binding at 1 µM (CSK): 60% | remaining binding at 1 µM (ERBB3): 64% | remaining binding at 1 µM (MUSK): 100% | remaining binding at 1 µM [6]: 100% | remaining binding at 1 µM (HPK1): 100% | remaining binding at 1 µM (ALK(L1196M)): 92% | remaining binding at 1 µM (PKNB(M.tuberculosis)): 83% | remaining binding at 1 µM (NEK9): 100% | remaining binding at 1 µM (ACVRL1): 100%
